We go through 1 compound from US10806726B2, “Methods of using indazole-3-carb oxamides and their use as Wnt/B-catenin signaling pathway inhibitors” (Samumed, LLC, priority 2016, dated 2020).

Molecules are shown by their SMILES.

Test [1] has as its system Wnt-responsive promoter driving firefly luciferase in SW480 cells. The test is described as follows: Wnt reporter (SP5 promoter-luciferase) screening assay in SW480 cells. To be noted: Homo sapiens, 24-40 h, top concentration ten micromolar. The test is classed as cell-based. The method, boiled down:
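SW480 (APC-mutant colon) cells stably transduced with lentiviral SP5-promoter (eight TCF/LEF sites) firefly luciferase, ~10,000 cells/well. Signals normalized to DMSO controls for EC50 fitting.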

The subject of test [2] is collagenase-induced tendonitis of the Achilles tendon in Sprague Dawley rats. In words: Rat Tendinopathy Model (1), collagenase-induced, tendon histology scoring. The test is classed as in vivo. The settings on record: for tendon histology score: topical once daily 21 days, total score of 20. Here is the method:
(§1) Fifty (50 μl) of Collagenase Type IA (10 mg/ml in PBS, pH 7.4, approximately 469 units/mg) (Catalog # C5138, Sigma, St. Louis, Mo.) was injected into the Achilles tendon of both ankles near the osteotendinous junction of male Sprague Dawley CD® IGS rats (CRL, Inc.), using insulin syringes with 28.5 G needle.
(§2) Rats were divided into 6 groups with 5 animals per group: Group 1 (sham injection); Group 2 (Collagenase-Vehicle); Group 3 (Collagenase-compound 175 10 mg/mL with 1% BA) and Group 4 (Collagenase-COMPOUND 175 10 mg/mL with 0.5% Tween 80). […] All rats were periodically observed for any pain, illnesses or abnormalities. At various time points, blood was collected for plasma in lithium heparin coated tubes by saphenous vein bleeding. For histology, rats were euthanized using isoflurane, tendons were isolated (n=6 tendons/group), fixed in 10% buffered formalin (Catalog # SF93-4, Fisher, Pittsburgh Pa.) and H & E histology staining was performed at a secondary site (Pacific Pathology, San Diego, Calif.). For biochemical analysis, tendons were isolated (n=4 tendons/group), flash frozen in liquid nitrogen and then stored at −80° C. for subsequent biochemical analysis (not reported).
There is biological variability in response to collagenase when injected directly into the tendons. […] Slides were viewed under an upright light microscope (EVOS AMEX-1200) at a 10× magnification and scored blinded using a 1-4 scoring system of severity: 1—representing severe damage and 4—representing normal tendon, for Linearity of the fiber structure, Shape of the tendon cells, Density of the tendon cells, Inflammation, and Hemorrhage for a total score of twenty (20) using a modification of that described previously (Urdzikova et al., 2014—see Table 3). […]
For tendon scoring, each section was analyzed following a 1-4 point scoring system as previously described (Urdzikova et al., 2014) with the exclusion of one variable, the Thickness of the epitenon, due to the difficulty in discerning the epitenon layer in histology sections. […]

A further test relates to KC/GRO in plasma. In words: Rat Tendinopathy Model (1), plasma biomarker KC/GRO. The test is classed as in vivo. Here is the method:
as §1
as §2, with “Rats were divided into 6 groups with 5 animals per group: Group 1 (sham injection); Group 2 (Collagenase-Vehicle); Group 3 (Collagenase-compound 175 10 mg/mL with 1% BA) and Group 4 (Collagenase-COMPOUND 175 10 mg/mL with 0.5% Tween 80).” left out
Following manufacturer's instructions, KC/GRO plasma levels were determined using the KC/GRO Immunoassay kit (Catalog#900-K57, Peprotech, Rocky Hill, N.J.). Briefly, 96-well plates were coated with the anti-rat KC/GRO capture antibody overnight and washed to remove excess antibody. Plasma samples were incubated in the coated plates for 2 hours at room temperature. Following washes to remove unbound proteins, biotinylated anti-rat KC/GRO detection antibody was added and incubated for 30 mins at room temperature. Following washes to remove unbound excess antibody, avidin-HRP was added and incubated for 30 mins at room temperature. Following washes to remove unbound Avidin-HRP, the ABTS substrate was added and the plates were read on the Cytation 3 plate reader (Biotek Inc., Winooski, Vt.) at an absorbance of 525 nm with correction at 450 nm. All samples were processed in triplicate.
In this study, a total of 64 sections were scored for Group 1 (sham injection group) and approximately 96 sections each for Group 2 (Collagenase-Vehicle), Group 3 (Collagenase-compound 175 with BA preservative) group and Group 4 (Collagenase-compound 175 without preservative). To determine statistical significance between groups, student's t-test was performed with p<0.05 considered as significant for histology scoring and biomarker assay.

Turning to `COc1ccc(NC(=O)c2n[nH]c3ccc(-c4cncc(CN5CCCCC5)c4)cc23)cn1` [compound 175, N-(6-Methoxypyridin-3-yl)-5-(5-(piperidin-1-ylmethyl)pyridin-3-yl)-1H-indazole-3-carboxamide], in test [1], the EC50 came to 25 nM. Further, in test [2] (10 mg/ml with or without BA preservative, topical 21 days), the “blinded histology scoring of tendon injury and inflammation vs vehicle” value is listed as “significantly ameliorated collagenase-induced tendinopathy”. Further, the tendon histology score is listed as 14.0 (±0.217) in test [2] (Group 3, 10 mg/mL with BA) and 12.2 (±0.284) in test [2] (Group 4, 10 mg/mL without BA (0.5% Tween 80)). For the same compound, the “plasma KC/GRO vs vehicle” value in the test on KC/GRO in plasma (10 mg/mL with or without BA preservative) is given as “significantly decreased the levels of KC/GRO in plasma”. Further, the “Plasma KC/GRO Concentration” value turned out to be 332 ± 51.3 pg/mL with KC/GRO in plasma (Day 0, Group 3, 10 mg/mL with 0.5% BA); 530 ± 31.4 pg/mL in the test on KC/GRO in plasma (Day 0, Group 4, 10 mg/mL without BA, with 0.5% Tween 80); 521 ± 23.9 pg/mL with KC/GRO in plasma (Day 1, Group 3, 10 mg/mL with 0.5% BA); 637 ± 120 pg/mL in the test on KC/GRO in plasma (Day 1, Group 4, 10 mg/mL without BA, with 0.5% Tween 80); 813 ± 61.4 pg/mL in the test on KC/GRO in plasma (Day 3, Group 3, 10 mg/mL with 0.5% BA); 541 ± 58.9 pg/mL in the test with KC/GRO in plasma (Day 3, Group 4, 10 mg/mL without BA, with 0.5% Tween 80). For the same compound, the “Plasma KC/GRO Concentration” value in the test on KC/GRO in plasma (Day 5, Group 3, 10 mg/mL with 0.5% BA) amounted to 480 ± 48.7 pg/mL; with KC/GRO in plasma (Day 5, Group 4, 10 mg/mL without BA, with 0.5% Tween 80) it was 410 ± 86.0 pg/mL; in the test on KC/GRO in plasma (Day 7, Group 3, 10 mg/mL with 0.5% BA), 421 ± 57.2 pg/mL; in the test on KC/GRO in plasma (Day 7, Group 4, 10 mg/mL without BA, with 0.5% Tween 80) it was 451 ± 76.6 pg/mL; with KC/GRO in plasma (Day 14, Group 3, 10 mg/mL with 0.5% BA), 400 ± 10.3 pg/mL; with KC/GRO in plasma (Day 14, Group 4, 10 mg/mL without BA, with 0.5% Tween 80), 424 ± 76.2 pg/mL. For the same compound, the “Plasma KC/GRO Concentration” value is reported as 408 ± 83.3 pg/mL in the test with KC/GRO in plasma (Day 21, Group 3, 10 mg/mL with 0.5% BA) and 347 ± 111 pg/mL in the test on KC/GRO in plasma (Day 21, Group 4, 10 mg/mL without BA, with 0.5% Tween 80). Further, the “plasma KC/GRO levels, range” value was 400 to 480 pg/mL with KC/GRO in plasma (Days 5-21, treated group with BA) and 347 to 451 pg/mL in the test on KC/GRO in plasma (Days 5-21, treated group without BA).
